Measurements published in PMC7532674, “Synthesis and preliminary studies of ^11C-labeled tetrahydro-1,7-naphthyridine-2-carboxamides for PET imaging of metabotropic glutamate receptor 2” (Theranostics, 2020).

Key:
[1] = target: T1, human mGlu2 (Homo sapiens, UniProt Q14416); assay: Human mGlu2 GIRK thallium flux assay; format: cell-based; conditions: HEK293 cells, EC80 glutamate, triplicate assays (14g duplicate)
T1 construct: expressed in transfected cells
Description: (§1) Cell Line Generation and Thallium Flux Assays. The general procedure for the preparation of human mGlu2 and mGlu3 was described previously, [56] with minor modifications in this work. The cloning sites were NheI/NotI for both receptors. HEK GIRK cells, generously provided by Lily Jan (University of California San Francisco, San Francisco, CA), were transfected with 24 μg of DNA using Fugene6 (Promega), stable transfectants were selected with 1 μg/mL puromycin dihydrochloride (Sigma-Aldrich, St. Louis, MO), and polyclonal human mGlu2 GIRK and mGlu3 GIRK cell lines were established. Cells were maintained following selection in 45% DMEM, 45% Ham's F12, 10% FBS, 100 units/mL penicillin/streptomycin, 20 mM HEPES, pH 7.3, 1 mM sodium pyruvate, 2 mM glutamine, 700 μg/mL G418 (Mediatech, Inc., Herndon, VA), and […] puromycin (growth media) at 37 °C in the presence of 5% CO2. All cell culture reagents were purchased from Invitrogen Corp. (Carlsbad, CA) unless otherwise noted.
(§2) Human mGlu2 and mGlu3 Thallium Flux in Vitro Assays. Potencies of these NAMs at both mGlu2 and mGlu3 were investigated by thallium flux through GIRK channels, which was disclosed in detail as well as described in our previous work. In particular, cells were plated into 384-well, black-walled, clear-bottomed poly(D-lysine_-coated plates at a density of 15 000 cells per well in 20 μL of DMEM containing 10% dialyzed FBS, 20 mM HEPES, and 100 units/mL penicillin/streptomycin (assay media). Plated cells were incubated overnight at 37 °C in the presence of 5% CO2. The next day, the medium was exchanged from the cells to assay buffer [Hanks' balanced salt solution (Invitrogen) containing 20 mM HEPES, pH 7.3] using an ELX405 microplate washer (BioTek), leaving 20 μL per well, followed by the addition of 20 μL per well of FluoZin2-AM (330 nM final concentration) indicator dye (Invitrogen; prepared as a stock in DMSO and mixed in a 1:1 ratio with Pluronic acid F-127) in assay buffer. Cells were incubated for 1 h at room temperature, and the dye was exchanged to assay buffer using an ELX405, leaving 20 μL per well. For concentration-response curve experiments, compounds were serially diluted 1:3 into 10 point concentration-response curves and were transferred to daughter plates using an Echo acoustic plate reformatter (Labcyte, Sunnyvale, CA). Test compounds were diluted to 2 times their final desired concentration in assay buffer (0.3% DMSO final concentration). Agonists were diluted in thallium buffer [125 mM sodium bicarbonate (added fresh the morning of the experiment), 1 mM magnesium sulfate, 1.8 mM calcium sulfate, 5 mM glucose, 12 mM thallium sulfate, and 10 mM HEPES, pH 7.3] at 5 times the final concentration to be assayed. Cell plates and compound plates were loaded onto a kinetic imaging plate reader (FDSS 6000 or 7000; Hamamatsu Corporation, Bridgewater, NJ). Appropriate baseline readings were taken (10 images at 1 Hz; excitation, 470 ± 20 nm; emission, 540 ± 30 nm), and test compounds were added in a 20 μL volume and incubated for approximately 1 h at room temperature before the addition of 10 μL of thallium buffer with or without an EC80 concentration of the agonist glutamate for affinity evaluation experiments or with a full concentration-response of glutamate for Schild analysis experiments. After the addition of agonist, data were collected for approximately an additional 2.5 min. Data were analyzed using Excel (Microsoft Corp, Redmond, WA). The slope of the fluorescence increase beginning 5 s after thallium/agonist addition and ending 15 s after thallium/agonist addition was calculated, corrected to vehicle and maximal agonist control slope values, and plotted using either XLfit (ID Business Solutions Ltd.) or Prism software (GraphPad Software, San Diego, CA) to generate concentration-response curves. Potencies were calculated from fits using a four-point parameter logistic equation.

[2] = target: T2, human mGlu3 (Homo sapiens, UniProt Q14832); assay: Human mGlu3 GIRK thallium flux assay; format: cell-based; conditions: HEK293 cells, triplicate assays (14g duplicate)
T2 construct: expressed in transfected cells
Description: as §1, §2

[3] = target: T3, mGlu2 (Rattus norvegicus, UniProt P31421); assay: Dynamic PET imaging in rat brain; format: in vivo, SD rats; parameters: from tissue; host or cells: brain of living SD rats
Description: As we previously reported, PET scans were carried out by an Inveon PET scanner (Siemens Medical Solutions, Knoxville, TN, USA). During the scan, SD rats were anesthetized by oxygen mixed with 1-2% (v/v) isoflurane and kept body temperature at […] by a commercially available circulation system (T/Pump TP401, Gaymar Industries, Orchard Park, NY). A 24-gauge catheter was inserted into the tail vein to facilitate a bolus injection. The radiotracer [^11C]14a or [^11C]14b (ca. 1 mCi / 150-200 μL) was injected into the rat via the preinstalled catheter, and the dynamic acquisition of PET signals in rat brain was started at the same time and lasted for 60 min in 3D list mode. For pretreatment studies, 14a (1 mg/kg for [^11C]14a for self-blocking study in Figure S2; 3 mg/kg for [^11C]14b for blocking study in Figure S12C) or 14b (1 mg/kg for [^11C]14b for self-blocking study in Figure S12B), formulated in 300 μL of saline containing 10% ethanol and 5% Tween 80, was injected at 30 min via the tail vein catheter prior to the injection of [^11C]14a or [^11C]14b. The dynamic emission data were reconstructed by filtered back projection using Hanning's filter with a Nyquist cutoff of 0.5 cycle/pixel into 33 frames (10 s × twelve frames, 20 s × three frames, 30 s × three frames, 60 s × three frames, 150 s × three frames, and 300 s × nine frames). The TACs of [^11C]14a or [^11C]14b were analyzed from volumes of interest in the striatum, hippocampus, cortex, thalamus, pons and cerebellum normalized to a rat brain MRI template using PMOD software (version 3.4; PMOD technology, Zurich, Switzerland). The radioactivity was decay-corrected to the injection time and expressed as the standardized uptake value (SUV) which equals to (radioactivity per milliliter of tissue per injected radioactivity) × (gram of body weight). To obtain non-displaceable binding potential (BPND), simplified reference tissue model (SRTM), [54] was carried out on the basis of kinetic analysis using PMOD software. We acquired BP-parametric images using kinetic modeling without masking. Respective TACs in receptor-rich or -poor region were loaded for production of BP-map with default setting. Representative parametric images scaled with BPND were reconstructed by PMOD software using TACs in mGlu2-enriched and reference regions. Pons was selected as the reference region for mGlu2 (the lowest and consistent brain uptake and washout kinetics between baseline and blocking conditions). It should be noted that while there is a low-level expression of mGlu2 in the pons, it is not without existence. A reference region should be a region devoid of the target, but with similar tracer transport or diffusion to the other regions of interest with expression of the target. Therefore, there are some limitations when using pons as the reference region. For example, the partial volume effect in PET likely leads to spillover of activity from nearby higher uptake regions into the pons, artificially increasing the time-activity curve in the pons.

[4] = target: T3, mGlu2; assay: In vitro autoradiography in rat brain sections; format: binding; parameters: from tissue; host or cells: Sprague-Dawley rat brain sections; conditions: preincubated with unlabeled QCA, 14b or 14a at 10 µM
Description: Sagittal rat brain slices were prepared into 20 μm sections with a cryostat (HM560; Carl Zeiss, Oberkochen, Germany), mounted on air plasma spray-coated glass slides, and stored at -80 °C before used for experiments. The sections were preincubated for 15 min in a glass tank containing 200 mL of Tris·HCl buffer (50 mM, pH 7.4) consisting of 2 mM of MgCl2 and 1.2 mM of CaCl2 at room temperature. After preincubation, the sections were incubated in a fresh buffer containing [^11C]14a or [^11C]14b (250 µCi in 200 mL buffer; molar activity 2.7 Ci/µmol of [^11C]14a and 2.5 Ci/µmol of [^11C]14b, respectively) in the glass tank for 30 min at room temperature. For blocking studies, non-radioactive 14a or 14b (10 μM) and QCA (10 μM) were chosen to determine the specificity of radiotracers for binding mGlu2. Six serial brain sections were used for each conditions. After incubation, brain sections were washed with cold buffer (3 × 5 min), immersed in cold distilled water, and then dried with cold air. The sections were placed in contact with imaging plates (BAS-MS2025, FUJIFILM, Tokyo, Japan). Autoradiograms were obtained and photostimulated luminescence (PSL) values in the ROIs were measured using a Bio-Imaging Analyzer System (BAS5000, FUJIFILM).

[5] = tested on: mGlu2; conditions: cited from earlier work

T3 sequence (P31421 19-872): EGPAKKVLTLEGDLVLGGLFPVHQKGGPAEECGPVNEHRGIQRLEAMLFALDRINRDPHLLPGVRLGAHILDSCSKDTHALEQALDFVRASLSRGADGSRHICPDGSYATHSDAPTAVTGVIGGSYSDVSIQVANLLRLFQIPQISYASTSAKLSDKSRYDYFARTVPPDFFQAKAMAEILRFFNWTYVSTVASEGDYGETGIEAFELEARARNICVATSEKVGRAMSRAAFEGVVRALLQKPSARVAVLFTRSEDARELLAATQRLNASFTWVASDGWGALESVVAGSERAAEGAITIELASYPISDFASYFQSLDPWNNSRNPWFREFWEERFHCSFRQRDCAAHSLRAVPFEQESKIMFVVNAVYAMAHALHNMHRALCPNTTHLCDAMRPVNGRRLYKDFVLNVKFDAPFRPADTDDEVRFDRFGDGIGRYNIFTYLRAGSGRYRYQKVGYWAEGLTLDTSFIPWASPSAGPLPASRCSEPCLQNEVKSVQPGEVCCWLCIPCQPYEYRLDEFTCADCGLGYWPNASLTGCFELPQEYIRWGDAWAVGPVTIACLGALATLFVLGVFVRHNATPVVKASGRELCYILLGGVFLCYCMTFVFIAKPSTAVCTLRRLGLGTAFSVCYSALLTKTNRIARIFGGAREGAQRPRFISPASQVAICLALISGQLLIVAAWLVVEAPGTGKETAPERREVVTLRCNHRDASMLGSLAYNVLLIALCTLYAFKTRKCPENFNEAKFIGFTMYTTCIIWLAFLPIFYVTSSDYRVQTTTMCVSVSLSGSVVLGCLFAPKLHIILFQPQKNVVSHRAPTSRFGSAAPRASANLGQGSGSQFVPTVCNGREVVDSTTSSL
T1 sequence (Q14416 19-872): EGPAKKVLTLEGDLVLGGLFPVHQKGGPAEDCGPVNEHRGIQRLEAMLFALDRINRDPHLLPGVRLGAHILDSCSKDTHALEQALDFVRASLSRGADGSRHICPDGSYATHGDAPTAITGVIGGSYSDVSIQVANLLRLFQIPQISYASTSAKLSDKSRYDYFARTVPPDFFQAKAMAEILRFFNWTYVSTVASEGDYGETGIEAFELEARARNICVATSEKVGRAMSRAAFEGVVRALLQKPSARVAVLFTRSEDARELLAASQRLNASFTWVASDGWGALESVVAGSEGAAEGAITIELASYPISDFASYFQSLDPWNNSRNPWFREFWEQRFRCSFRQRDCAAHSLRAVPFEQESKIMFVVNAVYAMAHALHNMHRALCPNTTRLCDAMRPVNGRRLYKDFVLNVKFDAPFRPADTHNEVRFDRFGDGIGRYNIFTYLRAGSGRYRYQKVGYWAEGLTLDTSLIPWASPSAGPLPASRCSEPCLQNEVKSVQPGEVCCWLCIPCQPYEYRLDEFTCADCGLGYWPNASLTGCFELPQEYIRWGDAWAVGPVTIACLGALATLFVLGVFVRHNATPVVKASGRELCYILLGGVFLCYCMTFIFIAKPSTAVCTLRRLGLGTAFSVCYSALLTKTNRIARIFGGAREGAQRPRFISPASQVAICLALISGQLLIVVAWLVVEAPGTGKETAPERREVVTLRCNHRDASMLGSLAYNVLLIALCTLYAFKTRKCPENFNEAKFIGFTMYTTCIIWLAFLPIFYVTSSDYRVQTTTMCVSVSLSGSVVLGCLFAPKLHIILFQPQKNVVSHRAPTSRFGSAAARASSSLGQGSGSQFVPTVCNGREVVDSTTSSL
T2 sequence (Q14832 23-879): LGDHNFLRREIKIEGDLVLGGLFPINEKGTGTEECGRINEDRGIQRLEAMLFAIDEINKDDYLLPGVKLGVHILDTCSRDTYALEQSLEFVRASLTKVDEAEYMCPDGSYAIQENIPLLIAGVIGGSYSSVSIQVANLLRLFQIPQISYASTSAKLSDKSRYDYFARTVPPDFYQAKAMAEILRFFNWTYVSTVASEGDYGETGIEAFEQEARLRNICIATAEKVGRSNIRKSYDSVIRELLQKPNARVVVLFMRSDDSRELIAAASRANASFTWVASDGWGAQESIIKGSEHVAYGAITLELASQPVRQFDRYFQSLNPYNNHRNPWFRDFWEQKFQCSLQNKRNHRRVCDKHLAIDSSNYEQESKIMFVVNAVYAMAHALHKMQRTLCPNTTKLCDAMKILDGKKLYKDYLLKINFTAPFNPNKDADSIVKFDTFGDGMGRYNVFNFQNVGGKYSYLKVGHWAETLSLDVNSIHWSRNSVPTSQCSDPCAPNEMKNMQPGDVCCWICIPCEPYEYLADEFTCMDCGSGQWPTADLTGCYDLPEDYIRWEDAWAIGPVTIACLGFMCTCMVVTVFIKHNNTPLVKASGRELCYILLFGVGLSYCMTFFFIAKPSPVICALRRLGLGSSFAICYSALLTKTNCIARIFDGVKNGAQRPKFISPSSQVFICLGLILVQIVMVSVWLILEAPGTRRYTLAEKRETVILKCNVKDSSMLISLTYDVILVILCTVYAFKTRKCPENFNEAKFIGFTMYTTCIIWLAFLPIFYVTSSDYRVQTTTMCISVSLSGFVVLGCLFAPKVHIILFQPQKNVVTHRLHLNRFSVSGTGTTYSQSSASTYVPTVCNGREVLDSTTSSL

Compound	IC50 [1] [nM]	IC50 [2] [µM]	IC50 [5] [nM]	further results
COc1cc(CN2CCc3c(-c4ccc(F)cc4OC)cc(C(N)=O)nc3C2)ccn1 [14d, 4-(4-fluoro-2-methoxyphenyl)-7-((2-methoxypyridin-4-yl)methyl)-5,6,7,8-tetrahydro-1,7-naphthyridine-2-carboxamide]	39	> 10	–	–
COc1cc(CN2CCc3c(-c4ccc(O[11CH3])cc4F)cc(C(N)=O)nc3C2)ccn1 [[^11C]14a, 4-(2-fluoro-4-(methoxy-^11C)phenyl)-7-((2-methoxy-pyridin-4-yl)methyl)-5,6,7,8-tetrahydro-1,7-naphthyridine-2-carboxamide]	–	–	–	Peak uptake in the striatum ([3]; SD rats, at 2.5 min): 1.7 SUV; Time of peak radioactivity in brain regions ([3]; SD rats, i.v.): 2.5 min; In vivo specificity ([3]; pretreatment with 14a (1 mg/kg)): low-to-modest; Decrease of region-to-pons ratios under blocking [4]: 17-54%
[11CH3]Oc1ccc(C2CCN(c3ccn(CC4CC4)c(=O)c3C#N)CC2)cc1 [[^11C]CMDC, 1-(cyclopropylmethyl)-4-(4-[^11C]methoxyphenyl)-piperidin-1-yl-2-oxo-1,2-dihydropyridine-3-carbonitrile]	–	–	98	–
[11CH3]Oc1cccc(CC[C@@](N)(C(=O)O)[C@H]2C[C@@H]2C(=O)O)c1 [[^11C]CMG]	–	–	94	–
[11CH3]Oc1c(F)ccc(F)c1C1CCN(c2ccn3c(CC4CC4)nnc3c2Cl)CC1 [[^11C]JNJ42491293]	–	–	7.5	–

Further lines, with some results ahead:

IC50 [1] [nM]	IC50 [2] [µM]	Compound	IC50 [5] [nM]	further results
39	> 10	COc1ccc(-c2cc(C(N)=O)nc3c2CCN(Cc2ccnc(OC)c2)C3)c(F)c1 [14a, 4-(2-fluoro-4-methoxyphenyl)-7-((2-methoxypyridin-4-yl)methyl)-5,6,7,8-tetrahydro-1,7-naphthyridine-2-carboxamide]	–	–
129	> 10	COc1cc(CN2CCc3c(-c4ccc(C)cc4F)cc(C(N)=O)nc3C2)ccn1 [14c, 4-(2-fluoro-4-methyphenyl)-7-((2-methoxypyridin-4-yl)methyl)-5,6,7,8-tetrahydro-1,7-naphthyridine-2-carboxamide]	–	–
106	> 10	COc1ncc(CN2CCc3c(-c4ccc(C)cc4F)cc(C(N)=O)nc3C2)cn1 [14e, 4-(2-fluoro-4-methyphenyl)-7-((2-methoxypyrimidin-5-yl)methyl)-5,6,7,8-tetrahydro-1,7-naphthyridine-2-carboxamide]	–	–
318	> 10	COc1ccc(-c2cc(C(N)=O)nc3c2CCN(Cc2cnc(OC)nc2)C3)c(F)c1 [14f, 4-(2-fluoro-4-methoxyphenyl)-7-((2-methoxypyrimidin-5-yl)methyl)-5,6,7,8-tetrahydro-1,7-naphthyridine-2-carboxamide]	–	–
87	> 30	COc1cc(CN2CCc3c(-c4ccc(F)cc4Cl)cc(C(N)=O)nc3C2)ccn1 [14g]	–	–
